Reference: ChEMBL document CHEMBL1201862, “PubChem BioAssay data set” (2004)
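Results reflect a 48-hour exposure of cells in 96-well plates to compound at five concentrations. Abbreviation: GI50, concentration required for 50% inhibition of growth.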 Active and inactive are the calls of the source. Cut-off read from the data, not from the text of the source: active = GI50 up to about 1.1 µM and inactive = higher.

Tests used:
Experiment in all cases: inhibition of tumour cell growth, NCI panel, 48 h
[1] = tested on: 786-0
[2] = tested on: A498
[3] = tested on: A549
[4] = tested on: ACHN
[5] = tested on: BT-549
[6] = tested on: CAKI-1
[7] = tested on: CCRF-CEM
[8] = tested on: COLO 205
[9] = tested on: EKVX
[10] = tested on: HCT-15
[11] = tested on: HL-60
[12] = tested on: HOP-62
[13] = tested on: HOP-92
[14] = tested on: HT-29
[15] = tested on: Hs-578T
[16] = tested on: IGROV-1
[17] = tested on: K562
[18] = tested on: KM12
[19] = tested on: LOX IMVI
[20] = tested on: M14
[21] = tested on: MCF7
[22] = tested on: MDA-MB-231
[23] = tested on: MDA-MB-435
[24] = tested on: MDA-N
[25] = tested on: MOLT-4
[26] = tested on: Malme-3M
[27] = tested on: NCI-H226
[28] = tested on: NCI-H23
[29] = tested on: NCI-H522
[30] = tested on: NCI/ADR-RES
[31] = tested on: OVCAR-4
[32] = tested on: OVCAR-5
[33] = tested on: OVCAR-8
[34] = tested on: RPMI-8226
[35] = tested on: RXF 393
[36] = tested on: SF-268
[37] = tested on: SF-295
[38] = tested on: SF-539
[39] = tested on: SK-MEL-2
[40] = tested on: SK-MEL-5
[41] = tested on: SK-OV-3
[42] = tested on: SNB-19
[43] = tested on: SNB-75
[44] = tested on: SR
[45] = tested on: SW-620
[46] = tested on: T47D
[47] = tested on: TK-10
[48] = tested on: UACC-62
[49] = tested on: UO-31
[50] = tested on: DU-145
[51] = tested on: HCC 2998
[52] = tested on: HCT-116
[53] = tested on: OVCAR-3
[54] = tested on: PC-3
[55] = tested on: SK-MEL-28
[56] = tested on: SN12C
[57] = tested on: U-251
[58] = tested on: UACC-257

## CCOc1cc2c(c(OCC)c1O)CC[C@@H]1[C@@H]2CC[C@]2(C)[C@@H](O)CC[C@@H]12
[1]
  GI50: 2.45 µM (inactive)
[2]
  GI50: 5.21 µM (inactive)
[3]
  GI50: 7.11 µM (inactive)
[4]
  GI50: 1.11 µM (active)
[5]
  GI50: 0.418 µM (active)
[6]
  GI50: 0.746 µM (active)
[7]
  GI50: 1.7 µM (inactive)
[8]
  GI50: 20.5 µM (inactive)
[9]
  GI50: 6.1 µM (inactive)
[10]
  GI50: 0.289 µM
[11]
  GI50: 0.297 µM (active)
[12]
  GI50: 1.32 µM (inactive)
[13]
  GI50: 18.7 µM (inactive)
[14]
  GI50: 8.38 µM (inactive)
[15]
  GI50: 4.68 µM (inactive)
[16]
  GI50: 6.76 µM (inactive)
[17]
  GI50: 0.329 µM (active)
[18]
  GI50: 6.03 µM (inactive)
[19]
  GI50: 2.23 µM (inactive)
[20]
  GI50: 3.05 µM (inactive)
[21]
  GI50: 0.505 µM (active)
[22]
  GI50: 2.62 µM (inactive)
[23]
  GI50: 0.203 µM (active)
[24]
  GI50: 0.234 µM (active)
[25]
  GI50: 0.681 µM (active)
[26]
  GI50: 2.29 µM (inactive)
[27]
  GI50: 15.9 µM (inactive)
[28]
  GI50: 4.2 µM (inactive)
[29]
  GI50: 0.61 µM (active)
[30]
  GI50: 3.23 µM (inactive)
[31]
  GI50: 51.8 µM (inactive)
[32]
  GI50: 10.7 µM (inactive)
[33]
  GI50: 7.59 µM (inactive)
[34]
  GI50: 2.74 µM (inactive)
[35]
  GI50: 2.21 µM (inactive)
[36]
  GI50: 4.79 µM (inactive)
[37]
  GI50: 0.693 µM (active)
[38]
  GI50: 1.48 µM (inactive)
[39]
  GI50: 14 µM (inactive)
[40]
  GI50: 1.21 µM (inactive)
[41]
  GI50: 4.75 µM (inactive)
[42]
  GI50: 1.25 µM (inactive)
[43]
  GI50: 0.587 µM (active)
[44]
  GI50: 0.331 µM (active)
[45]
  GI50: 1.22 µM (inactive)
[46]
  GI50: 2.33 µM (inactive)
[47]
  GI50: 25.3 µM (inactive)
[48]
  GI50: 0.482 µM (active)
[49]
  GI50: 9.27 µM (inactive)

## c1ccc2cc3c(cc2c1)nc1ccccn13
[1]
  GI50: > 100 µM (inactive)
[3]
  GI50: > 100 µM (inactive)
[4]
  GI50: > 100 µM (inactive)
[5]
  GI50: > 100 µM (inactive)
[7]
  GI50: > 100 µM (inactive)
[8]
  GI50: > 100 µM (inactive)
[50]
  GI50: > 100 µM (inactive)
[9]
  GI50: > 100 µM (inactive)
[51]
  GI50: > 100 µM (inactive)
[52]
  GI50: 96.2 µM (inactive)
[10]
  GI50: > 100 µM
[11]
  GI50: > 100 µM (inactive)
[12]
  GI50: > 100 µM (inactive)
[13]
  GI50: > 100 µM (inactive)
[15]
  GI50: 21 µM (inactive)
[16]
  GI50: > 100 µM (inactive)
[17]
  GI50: > 100 µM (inactive)
[18]
  GI50: > 100 µM (inactive)
[20]
  GI50: > 100 µM (inactive)
[21]
  GI50: 28.2 µM (inactive)
[23]
  GI50: > 100 µM (inactive)
[24]
  GI50: > 100 µM (inactive)
[25]
  GI50: > 100 µM (inactive)
[26]
  GI50: > 100 µM (inactive)
[27]
  GI50: > 100 µM (inactive)
[28]
  GI50: > 100 µM (inactive)
[30]
  GI50: > 100 µM (inactive)
[53]
  GI50: > 100 µM (inactive)
[32]
  GI50: > 100 µM (inactive)
[33]
  GI50: > 100 µM (inactive)
[54]
  GI50: > 100 µM (inactive)
[34]
  GI50: > 100 µM (inactive)
[35]
  GI50: > 100 µM (inactive)
[36]
  GI50: > 100 µM (inactive)
[37]
  GI50: > 100 µM (inactive)
[38]
  GI50: > 100 µM (inactive)
[55]
  GI50: > 100 µM (inactive)
[40]
  GI50: > 100 µM (inactive)
[41]
  GI50: 77.3 µM (inactive)
[56]
  GI50: > 100 µM (inactive)
[42]
  GI50: > 100 µM (inactive)
[43]
  GI50: > 100 µM (inactive)
[44]
  GI50: > 100 µM (inactive)
[45]
  GI50: > 100 µM (inactive)
[46]
  GI50: > 100 µM (inactive)
[47]
  GI50: > 100 µM (inactive)
[57]
  GI50: > 100 µM (inactive)
[58]
  GI50: > 100 µM (inactive)
[48]
  GI50: > 100 µM (inactive)
[49]
  GI50: > 100 µM (inactive)
